# Legend:
# Nakaseomyces glabratus = assay: Antifungal activity against Candida glabrata clinical isolate after 24 hrs by broth microdilution method; format: functional
# Klebsiella oxytoca = assay: Antibacterial activity against Klebsiella oxytoca clinical isolate after 18 to 22 hrs by broth microdilution method; format: functional
# Candida albicans = assay: Antifungal activity against Candida albicans clinical isolate after 24 hrs by broth microdilution method; format: functional
# Enterobacter sp. = assay: Antibacterial activity against Enterobacter spp. clinical isolate after 18 to 22 hrs by broth microdilution method; format: functional
# Proteus mirabilis = assay: Antibacterial activity against Proteus mirabilis clinical isolate after 18 to 22 hrs by broth microdilution method; format: functional
# [Candida] sake = Antifungal activity against Candida sake clinical isolate after 24 hrs by broth microdilution method; format: functional; settings: Fermentozyma sake
# Escherichia coli = assay: Antibacterial activity against Escherichia coli after clinical isolate 18 to 22 hrs by broth microdilution method; format: functional
# Enterococcus faecalis = assay: Antibacterial activity against Streptococcus faecalis clinical isolate after 18 to 22 hrs by broth microdilution method; format: functional
# Candida parapsilosis = assay: Antifungal activity against Candida parapsilosis clinical isolate after 24 hrs by broth microdilution method; format: functional; settings: Lodderomyces parapsilosis
# Staphylococcus aureus = assay: Antibacterial activity against Staphylococcus aureus clinical isolate after 18 to 22 hrs by broth microdilution method; format: functional
# Pichia kudriavzevii = assay: Antifungal activity against Candida krusei clinical isolate after 24 hrs by broth microdilution method; format: functional
# Candida tropicalis = assay: Antifungal activity against Candida tropicalis clinical isolate after 24 hrs by broth microdilution method; format: functional
# Staphylococcus warneri = assay: Antibacterial activity against Staphylococcus warneri clinical isolate after 18 to 22 hrs by broth microdilution method; format: functional
# [1] = system: Streptococcus sp. (viridans group); assay: Antibacterial activity against Streptococcus alpha-hemolyticus clinical isolate after 18 to 22 hrs by broth microdilution method
# [2] = Cytotoxicity against human Hep2 cells assessed as cell survival at 0.5 ug/ml after 24 hrs by trypan blue exclusion assay; format: cell-based, HEp-2; settings: read-out: Survival
# [3] = Antioxidant activity of the compound after 30 mins by FRAP assay; format: physicochemical
# [4] = Cytotoxicity against human Hep2 cells assessed as reduction in cell viability after 24 hrs by trypan blue exclusion assay; format: cell-based, HEp-2
# [5] = Antioxidant activity assessed as DPPH radical scavenging activity after 30 mins under dark conditions; format: physicochemical
# [6] = Antioxidant activity assessed as ABTS radical scavenging activity after 30 mins under dark conditions; format: physicochemical
# [7] = Metal chelating activity of the compound assessed as ferrous ion complex formation after 10 mins; format: physicochemical
# [8] = Cytotoxicity against human Hep2 cells assessed as cell survival at 5 ug/ml after 24 hrs by trypan blue exclusion assay; format: cell-based, HEp-2; settings: read-out: Survival
# [9] = Cytotoxicity against human Hep2 cells assessed as cell survival at 10 ug/ml after 24 hrs by trypan blue exclusion assay; format: cell-based, HEp-2; settings: read-out: Survival
# [10] = Cytotoxicity against human Hep2 cells assessed as cell survival at 50 ug/ml after 24 hrs by trypan blue exclusion assay; format: cell-based, HEp-2; settings: read-out: Survival
# [11] = Antioxidant activity of the compound after 30 mins by CUPRAC method; format: physicochemical
# [12] = Cytotoxicity against human Hep2 cells assessed as cell survival at 0.05 ug/ml after 24 hrs by trypan blue exclusion assay; format: cell-based, HEp-2; settings: read-out: Survival
# [13] = Antioxidant activity of the compound after 90 mins by phosphomolybdenum assay; format: physicochemical
Structure (SMILES),MIC (Nakaseomyces glabratus) [µg/mL],MIC (Klebsiella oxytoca) [µg/mL],MIC (Candida albicans) [µg/mL],MIC (Enterobacter sp.) [µg/mL],MIC (Proteus mirabilis) [µg/mL],MIC ([Candida] sake) [µg/mL],MIC (Escherichia coli) [µg/mL],MIC (Enterococcus faecalis) [µg/mL],MIC (Candida parapsilosis) [µg/mL],MIC (Staphylococcus aureus) [µg/mL],MIC (Pichia kudriavzevii) [µg/mL],MIC (Candida tropicalis) [µg/mL],MIC (Staphylococcus warneri) [µg/mL],MIC [1] [µg/mL],EC50 [3] [µM],IC50 [5] [µM],IC50 [6] [µM],IC50 [7] [µM],EC50 [11] [µM],EC50 [13] [µM],other results
C/C(=N\N=C1/SCC(=O)N1Cc1cccc(Cl)c1)c1ccccn1,2,> 256,2,> 256,> 256,16,> 256,> 256,2,> 256,4,2,> 256,> 256,4930,> 5000,26800,2760,1400,2040,"viability at 24 h, 0.5 ug/ml [2]: 87.5%; CC50 at 24 h [4]: 21 µg/mL; viability at 24 h, 5 ug/ml [8]: 85%; viability at 24 h, 10 ug/ml [9]: 69%; viability at 24 h, 50 ug/ml [10]: 0%; viability at 24 h, 0.05 ug/ml [12]: 94%"
C/C(=N/N=C1\SCC(=O)N1Cc1ccc(Cl)cc1)c1ccccn1,4,> 256,8,> 256,> 256,8,> 256,> 256,4,> 256,8,8,> 256,> 256,–,–,–,–,–,–,–
C/C(=N\N=C1/SCC(=O)N1Cc1cccc(Cl)c1)c1cccs1,2,> 256,2,> 256,> 256,2,> 256,> 256,2,> 256,2,2,> 256,> 256,2320,> 5000,20300,1640,1590,1160,"viability at 24 h, 0.5 ug/ml [2]: 89%; CC50 at 24 h [4]: 21 µg/mL; viability at 24 h, 5 ug/ml [8]: 82%; viability at 24 h, 10 ug/ml [9]: 63%; viability at 24 h, 50 ug/ml [10]: 0%; viability at 24 h, 0.05 ug/ml [12]: 94%"
Clc1ccccc1C(c1ccccc1)(c1ccccc1)n1ccnc1 [CLOTRIMAZOLE],2,–,2,–,–,2,–,–,2,–,2,2,–,–,–,–,–,–,–,–,"CC50 at 24 h [4]: 18 µg/mL; viability at 24 h, 50 ug/ml [10]: 10.2%"
O=C(O)CN(CCN(CC(=O)O)CC(=O)O)CC(=O)O [EDETIC ACID],–,–,–,–,–,–,–,–,–,–,–,–,–,–,–,–,–,20,–,–,–
Cc1c(C)c2c(c(C)c1O)CCC(C)(C(=O)O)O2 (stereo unspecified) [TROLOX],–,–,–,–,–,–,–,–,–,–,–,–,–,–,160,400,660,–,240,1130,–

# Second part, led by results:
MIC (Nakaseomyces glabratus) [µg/mL],MIC (Klebsiella oxytoca) [µg/mL],MIC (Candida albicans) [µg/mL],MIC (Enterobacter sp.) [µg/mL],MIC (Proteus mirabilis) [µg/mL],MIC ([Candida] sake) [µg/mL],MIC (Escherichia coli) [µg/mL],MIC (Enterococcus faecalis) [µg/mL],MIC (Candida parapsilosis) [µg/mL],MIC (Staphylococcus aureus) [µg/mL],MIC (Pichia kudriavzevii) [µg/mL],MIC (Candida tropicalis) [µg/mL],MIC (Staphylococcus warneri) [µg/mL],Structure (SMILES),MIC [1] [µg/mL],EC50 [3] [µM],IC50 [5] [µM],IC50 [6] [µM],IC50 [7] [µM],EC50 [11] [µM],EC50 [13] [µM],other results
2,> 256,4,> 256,> 256,8,> 256,> 256,4,> 256,8,8,> 256,C/C(=N/N=C1\SCC(=O)N1Cc1ccc(Cl)cc1)c1cccs1,> 256,–,–,–,–,–,–,–
16,> 256,2,> 256,> 256,256,> 256,> 256,64,> 256,16,32,> 256,Nc1ccc(CN2C(=O)CS/C2=N\N=C2CCCC2)cc1,> 256,–,–,–,–,–,–,–
1,> 256,4,> 256,> 256,4,> 256,> 256,2,> 256,2,32,> 256,CC(C)=N/N=C1\SCC(=O)N1Cc1ccc(N)cc1,> 256,2760,> 5000,2040,> 5000,1770,1200,–
8,> 256,4,> 256,> 256,2,> 256,> 256,8,> 256,8,2,> 256,C/C(=N/N=C1\SCC(=O)N1Cc1ccc(N)cc1)c1cccs1,> 256,–,–,–,–,–,–,–
8,> 256,2,> 256,> 256,2,> 256,> 256,8,> 256,8,2,> 256,C/C(=N/N=C1\SCC(=O)N1Cc1ccc(N)cc1)c1ccccn1,> 256,–,–,–,–,–,–,–

# — ChEMBL document CHEMBL3804786, “Novel 1,3-thiazolidin-4-one derivatives as promising anti-Candida agents endowed with anti-oxidant and chelating properties” (Eur J Med Chem, 2016)
